pIC50, pKi: −log10 of the molar value.

The results in this text go back to ChEMBL document CHEMBL4673336, “Design, synthesis and stepwise optimization of nitrile-based inhibitors of cathepsins B and L” (Bioorg Med Chem, 2021).

Test [1] addresses T1, Cathepsin B (Homo sapiens, UniProt P07858). The test can be described thus: Inhibition of human cathepsin B using Z-Phe-Arg-AMC fluorogenic peptide as substrate preincubated for 2 mins followed by substrate addition and measured for 5 mins by fluorescence assay.
Test [2] concerns the target T2, Procathepsin L (Homo sapiens, UniProt P07711). Description: Inhibition of human cathepsin L.
Target sequence in this assay (P07711 whole entry): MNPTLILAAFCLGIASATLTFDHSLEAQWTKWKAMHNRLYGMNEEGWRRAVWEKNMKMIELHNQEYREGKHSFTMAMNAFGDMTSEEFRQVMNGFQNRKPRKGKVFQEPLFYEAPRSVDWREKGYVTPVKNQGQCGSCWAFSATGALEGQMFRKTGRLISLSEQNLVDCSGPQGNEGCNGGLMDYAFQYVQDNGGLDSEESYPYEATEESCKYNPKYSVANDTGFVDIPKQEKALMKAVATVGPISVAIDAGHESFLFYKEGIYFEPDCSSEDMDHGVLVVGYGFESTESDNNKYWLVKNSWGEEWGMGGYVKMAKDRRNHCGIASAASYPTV
Test [3] deals with T3, Cathepsin S (Homo sapiens, UniProt P25774). Description: Inhibition of human cathepsin S.
Target sequence in this assay (P25774 whole entry): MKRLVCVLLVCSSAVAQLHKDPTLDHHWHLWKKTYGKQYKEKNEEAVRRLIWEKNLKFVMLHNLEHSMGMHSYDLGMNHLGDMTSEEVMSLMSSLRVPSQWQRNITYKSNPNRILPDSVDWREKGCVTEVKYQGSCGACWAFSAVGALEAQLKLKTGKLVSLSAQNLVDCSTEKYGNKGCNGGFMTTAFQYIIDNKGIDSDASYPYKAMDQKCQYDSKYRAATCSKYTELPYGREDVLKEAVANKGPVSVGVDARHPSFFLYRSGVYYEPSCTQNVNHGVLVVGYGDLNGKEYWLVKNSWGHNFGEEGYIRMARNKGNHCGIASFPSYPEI
Test [4] addresses T4, Cathepsin K (Homo sapiens, UniProt P43235).
T4 sequence (P43235 whole entry): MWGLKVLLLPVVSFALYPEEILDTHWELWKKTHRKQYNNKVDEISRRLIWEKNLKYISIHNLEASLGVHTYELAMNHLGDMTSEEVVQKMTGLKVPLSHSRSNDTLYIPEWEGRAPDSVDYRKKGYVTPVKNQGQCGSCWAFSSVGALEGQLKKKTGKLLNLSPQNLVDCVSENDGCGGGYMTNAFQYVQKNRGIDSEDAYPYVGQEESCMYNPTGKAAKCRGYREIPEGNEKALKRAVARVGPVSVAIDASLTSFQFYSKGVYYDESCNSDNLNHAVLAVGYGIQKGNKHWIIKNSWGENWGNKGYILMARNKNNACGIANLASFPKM
Description: Inhibition of recombinant human cathepsin K using Z-Leu-Arg-AMC as substrate measured after 20 mins.

Test [5] has as its target Cathepsin (S and K) (Homo sapiens) (UniProt P25774+P43235). Description: Selectivity index, ratio of pKi for human cathepsin S to pKi for recombinant human cathepsin K using Z-Leu-Arg-AMC as substrate measured after 20 mins. It counts as protein assay.
The species entered for test [6] is Homo sapiens. The test can be described thus: Selectivity index, ratio of pKi for human cathepsin S to pKi for human cathepsin L.
For test [7], the species on record is Homo sapiens. Description: Selectivity index, ratio of pKi for human cathepsin S to pKi for human cathepsin B using Z-Phe-Arg-AMC fluorogenic peptide as substrate preincubated for 2 mins followed by substrate addition and measured for 5 mins by fluorescence assay. Conditions: time 7.0 min.
Test [8] addresses T1, Cathepsin B. The test can be described thus: Inhibition of human cathepsin B at 10 uM using Z-Phe-Arg-AMC fluorogenic peptide as substrate preincubated for 2 mins followed by substrate addition and measured for 5 mins by fluorescence assay relative to control. As to conditions: time 7.0 min.
The target in test [9] is T2, Procathepsin L. The test can be described thus: Inhibition of human cathepsin L at 10 uM relative to control.
Target sequence in this assay (P07711 114-333 limits assumed): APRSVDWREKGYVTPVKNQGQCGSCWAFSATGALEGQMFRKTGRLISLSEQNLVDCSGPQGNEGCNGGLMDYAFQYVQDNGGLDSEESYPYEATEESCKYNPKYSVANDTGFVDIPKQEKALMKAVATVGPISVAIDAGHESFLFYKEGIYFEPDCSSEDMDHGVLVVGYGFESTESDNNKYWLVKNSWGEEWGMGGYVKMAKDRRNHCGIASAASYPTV
The target of test [10] is T5, Cathepsin K (Homo sapiens) (UniProt P43235).
T5 sequence (whole entry): T4 sequence (P43235 whole entry)
Description: Inhibition of recombinant human cathepsin K at 10 uM using Z-Leu-Arg-AMC as substrate measured after 20 mins relative to control.

Test [11] concerns the target T1, Cathepsin B. The test can be described thus: Inhibition of human cathepsin B at pH 6 using Z-Phe-Arg-AMC fluorogenic peptide as substrate preincubated for 2 mins followed by substrate addition and measured for 5 mins by fluorescence assay.
Test [12] has as its target T1, Cathepsin B. Description: Inhibition of human cathepsin B at pH 4.5 using Z-Phe-Arg-AMC fluorogenic peptide as substrate preincubated for 2 mins followed by substrate addition and measured for 5 mins by fluorescence assay.
The species named for test [13] is Homo sapiens. Description: Selectivity index, ratio of pKi for human cathepsin B using Z-Phe-Arg-AMC fluorogenic peptide as substrate preincubated for 2 mins followed by substrate addition and measured for 5 mins by fluorescence assay to pKi for human cathepsin L. As to conditions: time 7.0 min.
Test [14] deals with T3, Cathepsin S. Description: Inhibition of human cathepsin S at 10 uM relative to control.
Target sequence in this assay (P25774 115-331 limits assumed): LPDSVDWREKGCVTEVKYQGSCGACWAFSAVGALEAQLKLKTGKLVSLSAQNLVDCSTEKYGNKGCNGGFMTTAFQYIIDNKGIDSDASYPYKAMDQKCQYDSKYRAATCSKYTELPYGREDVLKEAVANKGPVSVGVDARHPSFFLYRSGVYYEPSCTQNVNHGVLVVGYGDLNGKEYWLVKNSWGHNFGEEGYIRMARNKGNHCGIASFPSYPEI

Cathepsin (S and K) (Homo sapiens), sequence (P25774 whole entry, looked up, one chain of several): as the sequence (P25774 whole entry) above

`C[C@@H](OCc1ccccc1)[C@@H](C#N)NC(=O)[C@H](Cc1cccc(Cl)c1)NS(=O)(=O)c1ccc(-c2ccccc2)cc1`: the pKi in [1] was 6.70; in test [2], 6.80; in test [3], 6.30; in test [4], 5.00.
Take `C[C@@H](OCc1ccccc1)[C@@H](C#N)NC(=O)[C@H](Cc1cccc(Br)c1)NC(=O)Cc1ccc(-c2ccccc2)cc1`: the Ratio pKi in [5], in [6] and in test [7] was greater than 50 in each case. For the same compound, the pKi in test [1] is less than 5.00; in test [2], less than 5.00; in test [3], 6.30; in test [4], less than 5.00. Besides, the inhibition in test [8] is greater than 90%; in test [9] it was 59%; in test [10], greater than 90%.
For `C[C@@H](OCc1ccccc1)[C@@H](C#N)NC(=O)[C@H](Cc1cccc(Cl)c1)NC(=O)c1ccc(-c2cncnc2)cc1`, the negative logarithm of the Ki (pKi) in test [1] was 7.90; in test [2], 7.80; in [3], 7.20; in test [4] it was 5.20.
As to `C[C@@H](OCc1ccccc1)[C@@H](C#N)NC(=O)[C@H](Cc1cccc(Cl)c1)NS(=O)(=O)c1cccc(Br)c1`, the pKi in test [1] was 7.40; in test [2], 9.60; in [3], 7.10; in test [4], 6.20.
Taken in the same sequence, the figures for `C[C@@H](OCc1ccccc1)[C@@H](C#N)NC(=O)[C@H](Cc1cccc(Cl)c1)NC(=O)c1cccc(Br)c1` were 7.20, 9.20, 7.80 and 5.40.
In the case of `C[C@@H](OCc1ccccc1)[C@@H](C#N)NC(=O)[C@H](Cc1cccc(Br)c1)NC(=O)c1cccc(-c2cccnc2)c1`, the negative logarithm of the Ki (pKi) was 7.50 in test [1], 7.70 in test [2], 7.70 in test [3] and less than 5.00 in test [4].
For the compound `C[C@@H](OCc1ccccc1)[C@@H](C#N)NC(=O)[C@H](Cc1cccc(Cl)c1)NC(=O)c1ccc(-c2ccccc2)cc1`, the negative-log IC50 (pIC50) in test [11] is 7.24; in [12] it was 7.37. Further, the negative logarithm of the Ki (pKi) in test [1] is 7.50; in [2], less than 5.00; in [3], 7.10; in test [4], 5.80. Also, the inhibition in test [9] was found to be 61%.
`C[C@@H](OCc1ccccc1)[C@@H](C#N)NC(=O)[C@H](Cc1cccc(Cl)c1)NS(=O)(=O)c1cccc(-c2ccccc2)c1`: the pKi was 7.60 in [1], 6.70 in test [2], 6.20 in [3] and less than 5.00 in test [4].
As for `C[C@@H](OCc1ccccc1)[C@@H](C#N)NC(=O)[C@H](Cc1cccc(Cl)c1)NC(=O)c1ccc(Br)cc1`, the negative-log Ki (pKi) in test [1] is 7.90; in test [2] it was 8.10; in test [3], 6.90; in [4], 5.30.
Consider `C[C@@H](OCc1ccccc1)[C@@H](C#N)NC(=O)[C@H](Cc1cccc(Br)c1)NC(=O)c1ccc(-c2cncnc2)cc1`, for which the pKi in [1] was 7.90; in [2], 7.70; in test [3], 7.50; in test [4], 5.30.
Regarding `C[C@@H](OCc1ccccc1)[C@@H](C#N)NC(=O)[C@H](Cc1c[nH]c2ccccc12)NC(=O)c1ccc(-c2ccccc2)cc1`, the negative-log Ki (pKi) in [1] was 7.30; in [2], 6.10; in [3], 6.80; in test [4], less than 5.00. The Ratio pKi in test [13] stood at 12. In [10], the inhibition is 70%.
Consider `C[C@@H](OCc1ccccc1)[C@@H](C#N)NC(=O)[C@H](Cc1cccc(Br)c1)NC(=O)c1ccc(-c2cccnc2)cc1`, for which the negative logarithm of the Ki (pKi) in test [1] is 7.90; in test [2], 7.70; in test [3], 7.40; in [4] it was less than 5.00. Moreover, the inhibition in [10] turned out to be 84%.
For the compound `C[C@@H](OCc1ccccc1)[C@@H](C#N)NC(=O)[C@H](Cc1cccc(Cl)c1)NC(=O)c1cccc(-c2ccccc2)c1`, the negative-log Ki (pKi) in test [1] was 6.90; in [2], 7.30; in test [3], 7.30; in test [4], less than 5.00.
Regarding `C[C@@H](OCc1ccccc1)[C@@H](C#N)NC(=O)[C@H](Cc1ccc(Br)cc1)NC(=O)c1ccc(-c2ccccc2)cc1`, the pKi is 6.80 in [1], less than 5.00 in [2], less than 5.00 in test [3] and less than 5.00 in [4]. The inhibition in [14] was 86%; in [9], greater than 90%; in test [10], 51%.
For `C[C@@H](OCc1ccccc1)[C@@H](C#N)NC(=O)[C@H](Cc1cccc(Br)c1)NC(=O)c1ccc(-c2ccccc2)cc1`, the pIC50 in [11] is 7.03; in test [12], 7.40. Also, the pKi in [1] was 7.30; in test [2], less than 5.00; in [3] it was 6.30; in [4], less than 5.00. The inhibition in test [9] was 55%; in test [10], greater than 90%.
Regarding `C[C@@H](OCc1ccccc1)[C@@H](C#N)NC(=O)[C@H](Cc1cccc(Cl)c1)NC(=O)c1cccc(-c2cccnc2)c1`, the figures for the pIC50 in [11] and in test [12] were 8.05 and 7.48, respectively. Moreover, the negative logarithm of the Ki (pKi) in [1] was 8.30; in test [2] it was 9.00; in test [3], 7.90; in [4], less than 5.00.
Turning to `C[C@@H](OCc1ccccc1)[C@@H](C#N)NC(=O)[C@H](Cc1cccc(Br)c1)NC(=O)c1cc(C(C)(C)C)nn1C`, the negative logarithm of the Ki (pKi) in test [1] was 6.80; in test [2] it was 9.30; in test [3], 6.80; in [4], 5.60.
With `C[C@@H](OCc1ccccc1)[C@@H](C#N)NC(=O)[C@H](Cc1cccc(Cl)c1)NC(=O)c1cccc(-c2cncnc2)c1`, the negative logarithm of the Ki (pKi) in test [1] is 7.20; in test [2] it was 7.70; in test [3], 7.80; in [4], less than 5.00. The inhibition in test [10] was determined as 82%.
